The values that follow come from article PMC6151488, “Structure, Absolute Configuration, and Antiproliferative Activity of Abietane and Icetexane Diterpenoids from Salvia ballotiflora” (Molecules : A Journal of Synthetic Chemistry and Natural …, 2017).

One assay concerns HeLa cells. More on the design: method as in doi:10.1016/j.bjp.2017.01.007. The conditions noted are these: similar activity when compared to cisplatin; cited from earlier work.
Assay [1] concerns U251 (human glioblastoma). Put plainly: Sulforhodamine B (SRB) cytotoxicity assay, U251. It counts as cell-based. The conditions noted are these: Homo sapiens, U-251; primary screening at 50.0 μM; mean n = 2; NC = No cytotoxic; read-out: Antiproliferative activity (%), U251. The text has this:
(§1) The natural products were screened in vitro against the following human cancer cell lines: human mammary adenocarcinoma (MCF-7), human chronic myelogenous leukemia (K562), human glioblastoma (U251), human lung adenocarcinoma (SKLU-1), human colon cancer (HCT-15), human prostate cancer (PC-3), healthy gingival human fibroblasts (FGH), and normal monkey kidney cell lines, which were supplied by the National Cancer Institute (NCI, USA) and American Type Culture Collection (ATTC). The human tumor cytotoxicity was determined using the protein-binding dye sulforhodamine B (SRB) in a microculture assay to measure cell growth, as described in the protocol established by the NCI [30]. The cell lines were cultured in RPMI-1640 medium supplemented with 10% fetal bovine serum, 2 mM L-glutamine, 10,000 units/mL penicillin G sodium, 10,000 μg/mL streptomycin sulfate, and 25 μg/mL amphotericin B (Gibco), and 1% non-essential amino acids (Gibco). They were maintained at 37 °C in a humidified atmosphere with 5% CO2.
(§2) Cytotoxicity after treatment of the tumors cells and normal cells with the test compounds were determined using the protein-binding dye sulforhodamine B (SRB) in a microculture assay to measure cell growth. The cells were removed from the tissue culture flasks by treatment with trypsin, and diluted with fresh media. Of these cell suspensions, 100 μL containing 5000–10,000 cells per well were pipetted into 96-well microtiter plates (Costar) and the material was incubated at 37 °C for 24 h in a 5% CO2 atmosphere. Subsequently, 100 μL of a solution of the compound obtained by diluting the stocks were added to each well. The cultures were exposed to the compound for 48 h. After the incubation period, cells were fixed to the plastic substratum by the addition of 50 μL of cold 50% aqueous trichloroacetic acid. The plates were incubated at 4 °C for 1 h, washed with tap water, and air-dried. The trichloroacetic-acid-fixed cells were stained by the addition of 0.4% SRB. The free SRB solution was then removed by washing with 1% aqueous acetic-acid. The plates were air-dried, and the bound dye was dissolved by the addition of 10 mM unbuffered Tris base (100 μL). The plates were placed on a shaker for 10 min, and the absorption was determined at 515 nm using an ELISA plate reader (Bio-Tex Instruments).

Assay [2] relates to SKLU-1 (human lung adenocarcinoma). Put plainly: Sulforhodamine B (SRB) cytotoxicity assay, SKLU-1. It counts as cell-based. The conditions noted are these: Homo sapiens, SK-LU-1; primary screening at 50.0 μM; mean n = 2; NC = No cytotoxic; read-out: Antiproliferative activity (%), SKLU-1.
Excerpt: as §1, with “CO2. The viability of the cells used in the experiments exceeded 95%, as determined with trypan blue.” for “CO2.”
as §2

The test system of assay [3] is K562 (human chronic myelogenous leukemia). Put plainly: Sulforhodamine B (SRB) cytotoxicity assay, K562. It counts as cell-based.
Excerpt: as §1, with “CO2. The viability of the cells used in the experiments exceeded 95%, as determined with trypan blue.” for “CO2.”
as §2

Assay [4] deals with MCF-7 (human mammary adenocarcinoma). Put plainly: Sulforhodamine B (SRB) cytotoxicity assay, MCF-7. It counts as cell-based.
Excerpt: as §1, with “CO2. The viability of the cells used in the experiments exceeded 95%, as determined with trypan blue.” for “CO2.”
as §2

The test system of assay [5] is PC-3 (human prostate cancer). Put plainly: Sulforhodamine B (SRB) cytotoxicity assay, PC-3. The conditions noted are these: primary screening at 50.0 μM, mean n = 2, NC = No cytotoxic, read-out: Antiproliferative activity (%), PC-3. It counts as cell-based.
Excerpt: as §1, with “CO2. The viability of the cells used in the experiments exceeded 95%, as determined with trypan blue.” for “CO2.”
as §2

Assay [6] deals with HCT-15 (human colon cancer). The assay can be described thus: Sulforhodamine B (SRB) cytotoxicity assay, HCT-15. It counts as cell-based. The conditions noted are these: primary screening at 50.0 μM, mean n = 2, NC = No cytotoxic, read-out: Antiproliferative activity (%), HCT-15.
Excerpt: as §1, with “CO2. The viability of the cells used in the experiments exceeded 95%, as determined with trypan blue.” for “CO2.”
as §2

For assay [7], the system named is healthy gingival human fibroblasts (FGH). The assay can be described thus: Sulforhodamine B (SRB) cytotoxicity assay, FGH primary culture. The conditions noted are these: primary screening at 50.0 μM; mean n = 2; NC = No cytotoxic. It counts as cell-based.
Excerpt: as §1, with “[…] The viability of the cells used” for “They were maintained at 37 °C”, “the experiments exceeded 95%, as determined” for “a humidified atmosphere”, “trypan blue.” for “5% CO2.”
(§3) Cytotoxicity after treatment of the tumors cells and normal cells with the test compounds were determined using the protein-binding dye sulforhodamine B (SRB) in a microculture assay to measure cell growth. […] The plates were placed on a shaker for 10 min, and the absorption was determined at 515 nm using an ELISA plate reader (Bio-Tex Instruments).

Assay [8] has as its system six human cancer cell lines (U251, PC-3, K562, HCT-15, MCF-7, SKLU-1) and FGH. Put plainly: SRB primary screening, whole panel (result in words). It counts as cell-based. The conditions noted are these: primary screening at 50 μM; cancer cell lines other than K562 and MCF-7. The method, then:
The same biological activity was also recently described for icetexane-derivatives isolated from Premna and Amentotaxus species. […] These facts prompted us to assay diterpenoids 3, 4, 6–8 and 10 for antiproliferative activity using six human cancer cell lines (U251, PC-3, K562, HCT-15, MCF-7, and SKLU-1), and a primary culture of healthy gingival human fibroblasts (FGH) at 1.0 or 50.0 μM (when cytotoxicity at 50.0 μM results were too high). […] Overall, the antiproliferative activity determined for 7 was lower than that observed for 6.
as §1, with “CO2. The viability of the cells used in the experiments exceeded 95%, as determined with trypan blue.” for “CO2.”
as §3

Assay [9] in a line: Scavenging activity on free radical DPPH. The conditions noted are these: at 100 μM; 30 min, 37 °C. As for the experimental part: Free radical scavenging activity was measured using an adapted method of Mellors and Tappel. The test was carried out in 96-well microplates. A 50-μL aliquot of the solution of the test compound was mixed with 150 μL of an ethanol solution of DPPH (final concentration 100 μM). The mixture was incubated at 37 °C for 30 min, and the absorbance was then measured at 515 nm using a BioTek microplate reader SYNERGY HT. The percent inhibition was determined by comparison with a 100-μM DPPH ethanol blank solution.

Where [10] appears, read: primary screening at 50.0 μM, mean n = 2, NC = No cytotoxic.

Take 19-deoxyisoicetexone: in the assay with HeLa cells, the concentration for half-maximal inhibition (IC50) was 9.36 µM.

For the molecule `CC(C)C1=C(O)C(=O)C2=C(C=C[C@@H]3[C@]4(CCC[C@]3(C)C(=O)O4)C2)C1=O` [Compound 8, icetexone], the inhibition at 50 µM in [1] is 35.8%; in assay [2] it was 52.9%; in assay [3] (Homo sapiens, K562, primary screening at 50.0 μM, mean n = 2, NC = No cytotoxic, read-out: Antiproliferative activity (%), K562), 83.1%; in [4] (Homo sapiens, MCF7, primary screening at 50.0 μM, mean n = 2, NC = No cytotoxic, read-out: Antiproliferative activity (%), MCF-7), 71.6%; in assay [5] it was 39.6%; in assay [6] it was 29%. Also, the half-maximal inhibitory concentration (IC50) in assay [3] (Homo sapiens, K562, SRB assay, 48 h exposure, mean ± SD, read-out: IC50 antiproliferative activity, K562) worked out at 17 ± 1.4 µM; in assay [4] (Homo sapiens, MCF7, SRB assay, 48 h exposure, mean ± SD, read-out: IC50 antiproliferative activity, MCF-7), 28.7 ± 1.6 µM. In addition, in [3] (setting [10]), the “Antiproliferative activity (%), K562” value is listed as “significant antiproliferative activity”. Also, the “Antiproliferative activity (%), MCF-7” value in [4] (setting [10]) was “significant antiproliferative activity”. Further, the “Antiproliferative activity (%), FGH” value in assay [7] is “lacked of toxicity”. Besides, the “Activity against all other tested cancer cell lines (in words)” value in assay [8] is listed as “moderately active”. For the same molecule, the “DPPH inhibitory effect (%)” value in assay [9] came to 3.7%.
